Measurements taken from US20250290110A1, “MOGROSIDE COMPOSITIONS AND METHODS OF PRODUCING SAME” (Elo Life Systems, priority 2024, published 2025).
Where “and” joins values, the source holds several entries; their conditions need not be identical. Equal entries are not always repeated.

Experiments:
[1] = Sweetness concentration response curve against sucrose reference standards, trained sensory panel; assay type: in vivo, human; settings: for potency, times as sweet as sucrose at 5 SEV: at 5 sucrose equivalent value (SEV)
Experimental: A blend composed of 80% purified mogroside-V (Chem Faces, CFS202202), 15% 11-oxo-mogroside-V (Chem Faces, CFS202201), and 5% mogroside IIIA-1 (Chem Faces, CFS202201) was diluted to six different concentrations (from 100 ppm to 650 ppm) in spring water (Ice Mountain, retail). For each solution, a set of five reference standards of sucrose dissolved in water in 0.5% (w/w) concentration increments was also prepared. Each concentration of the mogroside blend was evaluated by 6-8 trained judges. Samples were presented in 4-oz soufflé cups at room temperature, and the test sample was labeled with a random 3-digit code. Panelists tasted the blind-coded sample compared to the set of reference samples to determine the sweetness intensity score to the nearest 0.1 unit. Each concentration was evaluated in duplicate. The sweetness intensity scores were then plotted against the mogroside blend concentration to make a concentration response curve, and the best fitting Beidler equation was generated.
V90 is a 90% pure mogroside V containing about 6% 11-oxo mogroside-V. Five different concentrations of V90 (Huacheng Bio, LHGE-230401), ranging from 100 ppm to 500 ppm, were diluted in spring water (Ice Mountain, retail). Each dilution was presented to a panel of 7-8 judges experienced in evaluating sweeteners and was accompanied by a range of five sucrose solution reference standards bracketing the sweetness intensity of the test sample in 0.5% (w/w) increments. Panelists assigned a sweetness intensity score to each test sample, including blind duplicates, to the nearest 0.1 unit. All samples were served at room temperature in 4-oz soufflé cups with the test samples labeled with random 3-digit codes. Water and saltine crackers were provided for rinsing between samples.
Both individual mogrosides were also evaluated at five different concentrations in spring water (Ice Mountain, retail) for sweetness intensity. 11-oxo-mogroside was diluted to concentrations ranging from 200 ppm to 600 ppm and mogroside IIIA-1 was diluted to concentrations from 100 to 500 ppm. For each concentration, a set of five sucrose solution reference standards were prepared in 0.5% (w/w) increments to approximately bracket the sweetness intensity of the test sample. A panel of 6-8 trained judges evaluated each test sample in duplicate, accompanied by the corresponding reference standards, and assigned a sweetness intensity score to the sample to the nearest 0.1 unit. Samples were presented in 4-oz soufflé cups at room temperature, and the test sample was labeled with a random 3-digit code. The sweetness intensity scores were then plotted as a function of mogroside concentration to make a concentration response curve, and the best fitting Beidler equation was generated.
The error bars around each point represent 1 standard deviation. The data fit a Beidler equation with an r2 value of 0.961. The equation for this line is:
SEV=16.08*C/(521.2+C) • where SEV is the % sucrose equivalent sweetness as determined by sensory panel and C is the concentration of mogroside blend in ppm or mg/L.
P=SEV*10,000/C • where C is the concentration of the mogroside blend in ppm or mg/L and SEV is the % sucrose equivalent sweetness determined by sensory panel.

[2] = Descriptive analysis of sweetener attributes, sensory panel, 15-cm line scale; assay type: in vivo, human; settings: about 6 SEV in spring water; 0=low, 60=high
Description: The same samples described above were presented to a panel of 6-9 experienced judges for descriptive analysis. Solutions were blind-coded with random 3-digit codes and served at room temperature for evaluation. Panelists individually scored attributes of each sample, such as sweetness intensity, bitterness, astringency, and the presence of side flavors such as licorice or fruitiness. Scores were based on a 15-cm line scale marked with evenly spaced 5-point increments from low (0) to high (60). Samples were evaluated in duplicate. Water and saltine crackers were provided for rinsing between samples.
(§1) A solution of V90 was made at 410 ppm in spring water (Ice Mountain, retail) to be about 6 SEV. A second solution was made at about 6 SEV of purified mogroside-V (Chem Faces, CFS202202) at 325 ppm. A panel of 7-8 trained judges evaluated the temporal properties and taste attributes of each sample, including blind duplicates, in the same manner described previously in the Mogroside Blend 80/15/5 Taste Quality sections.
The panel also evaluated the intensity of several sensory attributes such as bitterness, astringency, caramel flavor, and fruitiness. The same 15-cm line scale was used for scoring, labeled from low (0) to high (60) with evenly spaced 5-point increments. The samples were served in 4-oz soufflé cups that were labeled with random 3-digit codes. Samples were evaluated at room temperature and included blind duplicates. Water and saltine crackers were provided for rinsing between samples. A 400-ppm solution of V90 (Huacheng Bio, LHGE-230401) was tasted as a reference at the beginning of the descriptive analysis session for calibration verification among panelists.

[3] = Temporal properties: onset of sweetness, time to maximum sweetness, aftertaste decay, trained sensory panel; assay type: in vivo, human; settings: solutions at about 6 SEV, room temperature
Experimental: Equi-sweet solutions at about 6 SEV were made in spring water (Ice Mountain, retail) of the following sweeteners: purified mogroside-V (Chem Faces, CFS202202), rebaudioside M (95%, Tate & Lyle, lot #1802-2302-1), rebaudioside A (95%, Tate & Lyle, 210617-01), and monk fruit (50% mogroside V, Tate & Lyle, 45GF220305). Another solution was prepared at about 6 SEV of a blend composed of 80% purified mogroside-V (Chem Faces, CFS202202), 15% 11-oxo-mogroside-V (Chem Faces, CFS202201), and 5% mogroside IIIA-1 (Chem Faces, CFS202201). The concentration of each solution can be found in Table 7.
A set of samples of each solution was evaluated by a panel of 7-9 trained judges. Panelists measured the time to onset of sweetness and time to reach maximum sweetness using a timer. Sweetness decay after expectorating was measured by rating sweetness intensity every 5 seconds on a 15-cm line scale graduated in evenly spaced 5-point increments and labeled low (0) to high (60). Samples were served at room temperature in 4-oz soufflé cups, labeled with random 3-digit codes. Water and saltine crackers were provided for rinsing between samples. Blind duplicates were evaluated in a second panel under the same conditions.
as §1
Two individual mogroside components of the blend, 11-oxo mogroside-V (Chem Faces, […]) and mogroside III-A1 (Chem Faces, 202301), were evaluated separately in spring water (Ice Mountain, retail) to determine the concentration needed to reach approximately 6 SEV. Solutions were then prepared at 3600 ppm of 11-oxo-mogroside-V and 600 ppm mogroside IIIA-1.
A panel of 6-7 trained judges evaluated the solutions by measuring the time to onset of sweetness and time to reach maximum sweetness using a timer. Decay of lingering aftertaste after expectorating was measured by rating sweetness intensity every 5 seconds on a 15-cm line scale graduated in evenly spaced 5-point increments and labeled low (0) to high (60). Samples were served at room temperature in 4-oz soufflé cups, labeled with random 3-digit codes, including blinded duplicates. Water and saltine crackers were provided for rinsing between samples.

[4] = cited from earlier work
[5] = sucrose, not evaluated in this test

Compound: C[C@H](CC[C@@H](O[C@@H]1O[C@H](CO[C@@H]2O[C@H](CO)[C@@H](O)[C@H](O)[C@H]2O)[C@@H](O)[C@H](O)[C@H]1O[C@@H]1O[C@H](CO)[C@@H](O)[C@H](O)[C@H]1O)C(C)(C)O)[C@H]1CC[C@@]2(C)[C@@H]3CC=C4[C@@H](CC[C@H](O[C@@H]5O[C@H](CO[C@@H]6O[C@H](CO)[C@@H](O)[C@H](O)[C@H]6O)[C@@H](O)[C@H](O)[C@H]5O)C4(C)C)[C@]3(C)[C@H](O)C[C@]12C [Mogroside V, mogroside V]
- SEV at 1,000 ppm ([1]; 1,000 ppm, from Beidler curve): 11.5 SEV
- Beidler equation denominator constant (SEV=a*C/(b+C), b) ([1]; C = concentration): 920.8 ppm or mg/L
- Beidler equation numerator constant (SEV=a*C/(b+C), a) ([1]; SEV = % sucrose equivalent sweetness): 22.03
- Potency at 5 SEV ([1]; at 5 SEV, spring water, room temperature): 185×
- potency, times as sweet as sucrose at 5 SEV ([1]; spring water, room temperature, listed as mogroside V): 185 times as sweet as sucrose
- potency, times as sweet as sucrose at 5 SEV ([1]; spring water, room temperature, listed as mogroside-V): about 185 times as sweet as sucrose
- potency, times as sweet as sucrose at 5 SEV ([1]; spring water, room temperature, listed as purified Mog-V): ~200 times as sweet as sucrose
- Potency at 10 SEV ([1]; at 10 SEV, from Beidler curve): 131×
- Astringent, average intensity score [2]: 2.9 and 2.5
- Bitter Linger, average intensity score [2]: 0.0
- Bitterness, average intensity score [2]: 1.1 and 1.4
- Body, average intensity score [2]: 11.9 and 12.1
- Caramel, average intensity score [2]: 4.2 and 4.5
- Fruity, average intensity score [2]: 2.6 and 3.0
- Licorice, average intensity score [2]: 0.8 and 0.7
- Sweet Linger, average intensity score [2]: 16.2 and 14.3
- Sweetness, average intensity score [2]: 35.9 and 36.3
- onset of sweetness [3]: 1.1 s
- time to reach maximum sweetness [3]: 2.5 s

Compound: OC[C@H]1O[C@@](CO)(O[C@H]2O[C@H](CO)[C@@H](O)[C@H](O)[C@H]2O)[C@@H](O)[C@@H]1O [sucrose]
- sweetness decay time (typical value) ([4]; 6 SEV solution of sucrose): 20 to 25 s
- onset of sweetness (general value, not evaluated in this test) [4, 5]: about 0.5 seconds
- time to reach maximum sweetness (general value, not evaluated in this test) [4, 5]: around 1 second
